The source of these data is PubChem BioAssay (NCI).

A word on the GI50: it is the concentration giving 50% growth inhibition. Usually TGI stands for the concentration giving total growth inhibition.

Each structure is given as a SMILES string.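 Cells were grown in 96-well plates and exposed to each compound for 48 hours at five concentrations; endpoints were interpolated linearly between bracketing concentrations, or set to the highest concentration if not reached. The concentration for 50% growth inhibition is given as GI50. At the TGI there is no net growth.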 Some results are limits rather than exact numbers.

Some test systems named below: PC-3 prostate; A549 NSCLC; SF-295 CNS; BT-549 breast; IGROV1 ovarian; DU-145 prostate; SNB-75 CNS; RPMI-8226 leukemia; LOX IMVI melanoma; HT29 colon.
What all share (test): DTP human tumour cell line panel, 48 h

On to `COc1cccc2c1C(=O)c1c(O)c3c(c(O)c1C2=O)C[C@@](O)(/C(C)=N/NC(=O)c1cccc([N+](=O)[O-])c1)C[C@@H]3OC1CC(N)C(O)C(C)O1` (some centres undefined), for which the GI50 in the assay with PC-3 prostate is 0.616 µM; in the assay with A549 NSCLC, 0.362 µM; with SF-295 CNS, 0.187 µM; with BT-549 breast it was 0.714 µM; with IGROV1 ovarian, 0.932 µM; in the assay on DU-145 prostate, 0.272 µM. The GI50 with SNB-75 CNS was 0.22 µM; in the assay on RPMI-8226 leukemia, 0.2 µM; in the assay on LOX IMVI melanoma, 0.146 µM; in the assay on HT29 colon, 0.238 µM. For the same compound, the TGI with PC-3 prostate came out at 8.74 µM; with A549 NSCLC, 11.8 µM; with SF-295 CNS, 0.997 µM; in the assay with BT-549 breast, 4.43 µM; in the assay with DU-145 prostate, 1.81 µM; in the assay on SNB-75 CNS, 1.5 µM. In addition, the TGI was determined as 1.86 µM in the assay with RPMI-8226 leukemia, 15.4 µM in the assay on LOX IMVI melanoma and 11.2 µM in the assay on HT29 colon.

As for `O=c1oc2ccccc2cc1P(=O)(O)O`, the TGI with PC-3 prostate, in the assay with A549 NSCLC, with SF-295 CNS, with BT-549 breast, in the assay on IGROV1 ovarian and with DU-145 prostate was > 100 µM throughout. The TGI with SNB-75 CNS, in the assay on RPMI-8226 leukemia, with LOX IMVI melanoma and in the assay on HT29 colon was > 100 µM each time.

Regarding `COc1cc(-c2csc(NC(=O)Nc3ccc(Cl)cc3)n2)cc(OC)c1OC`, the GI50 in the assay on PC-3 prostate was 2.4 µM; in the assay with A549 NSCLC, 3.15 µM; in the assay with SF-295 CNS it was 2.51 µM; in the assay on BT-549 breast, 2.18 µM; in the assay on IGROV1 ovarian, 3.18 µM; in the assay on DU-145 prostate it was 3.4 µM. Further, the GI50 was 2.12 µM in the assay with SNB-75 CNS, 2.14 µM in the assay with RPMI-8226 leukemia, 2.59 µM in the assay on LOX IMVI melanoma and 3.01 µM in the assay on HT29 colon. Besides, the TGI in the assay on PC-3 prostate worked out at 8.39 µM; in the assay with A549 NSCLC, 13.4 µM; with SF-295 CNS, 8.45 µM; with BT-549 breast it was 6.26 µM; in the assay with IGROV1 ovarian, 29.5 µM; in the assay with DU-145 prostate it was 17.3 µM. For the same compound, the TGI came to 8.39 µM with SNB-75 CNS, 5.78 µM in the assay with RPMI-8226 leukemia, 7.59 µM in the assay on LOX IMVI melanoma and 12.4 µM in the assay with HT29 colon.

`COc1cc2c(cc1OCCCCCOc1ccc(-c3nc4ccccc4s3)cc1)N=C[C@@H]1CCCN1C2=O`: the GI50 is 1.14 µM in the assay with PC-3 prostate; 5.29 µM with A549 NSCLC; 2.37 µM with SF-295 CNS; 3.45 µM with BT-549 breast; 4.39 µM in the assay with IGROV1 ovarian; 2.08 µM with DU-145 prostate. For the same compound, the GI50 in the assay on SNB-75 CNS was 6.57 µM; in the assay on RPMI-8226 leukemia, 1.03 µM; in the assay on LOX IMVI melanoma, 0.983 µM; in the assay with HT29 colon, 1.58 µM. In addition, the TGI with PC-3 prostate is 7.04 µM; in the assay on A549 NSCLC, 20.4 µM; with SF-295 CNS, > 100 µM; in the assay on BT-549 breast, 16.4 µM; with IGROV1 ovarian it was 43.5 µM; in the assay on DU-145 prostate, 13 µM. Besides, the concentration for total growth inhibition (TGI) in the assay on SNB-75 CNS was found to be 59.8 µM; in the assay with RPMI-8226 leukemia, 4.14 µM; in the assay on LOX IMVI melanoma it was 4.37 µM; in the assay with HT29 colon, 18 µM.

Consider `CCCN1CCC(Oc2cc(Nc3nc(Nc4cccc(F)c4C(N)=O)c4cc[nH]c4n3)c(OC)cc2Cl)CC1`, for which the GI50 in the assay on PC-3 prostate is 2.55 µM; in the assay with A549 NSCLC, 2.64 µM; with SF-295 CNS, 3.81 µM; in the assay with BT-549 breast it was 3.75 µM; in the assay with IGROV1 ovarian, 3.86 µM; with DU-145 prostate, 3.68 µM. Also, the GI50 in the assay with SNB-75 CNS was 3.22 µM; in the assay on RPMI-8226 leukemia it was 2.11 µM; in the assay on LOX IMVI melanoma, 1.57 µM; in the assay with HT29 colon it was 0.565 µM. Moreover, the TGI in the assay with PC-3 prostate came to 6.73 µM; in the assay with A549 NSCLC it was 5.95 µM; in the assay with SF-295 CNS, 8.53 µM; with BT-549 breast, 7.36 µM; in the assay with IGROV1 ovarian, 9.22 µM; in the assay with DU-145 prostate it was 7.76 µM. The total growth inhibition concentration (TGI) came to 7.79 µM in the assay on SNB-75 CNS, 6.35 µM with RPMI-8226 leukemia, 5.31 µM in the assay on LOX IMVI melanoma and 1.6 µM in the assay with HT29 colon.

For `COc1ccc2c(c1)c(-c1ccc(-c3cn(C)c4ccc(OC)cc34)s1)cn2C`, the GI50 in the assay with PC-3 prostate, in the assay with A549 NSCLC, with SF-295 CNS, with BT-549 breast, in the assay with IGROV1 ovarian and in the assay on DU-145 prostate was > 100 µM in each case. The GI50 in the assay with SNB-75 CNS is 49.4 µM; in the assay on RPMI-8226 leukemia it was > 100 µM; in the assay with LOX IMVI melanoma, > 100 µM; in the assay with HT29 colon, > 100 µM. In addition, the TGI in the assay on PC-3 prostate, with A549 NSCLC, with SF-295 CNS, with BT-549 breast, in the assay with IGROV1 ovarian and in the assay on DU-145 prostate was > 100 µM each time. The TGI in the assay with SNB-75 CNS, in the assay on RPMI-8226 leukemia, with LOX IMVI melanoma and in the assay with HT29 colon was > 100 µM each time.

With `O=C(Nc1ccccc1/C=C/c1n[nH]c2ccccc12)c1ccccc1`, the GI50 is 2.15 µM in the assay on PC-3 prostate; 2.47 µM in the assay on A549 NSCLC; 2.13 µM in the assay with SF-295 CNS; 3.97 µM in the assay on BT-549 breast; 6.47 µM with IGROV1 ovarian; 2.6 µM in the assay on DU-145 prostate. Further, the GI50 in the assay with SNB-75 CNS is 9.04 µM; with RPMI-8226 leukemia it was 3.07 µM; in the assay on LOX IMVI melanoma it was 2.48 µM; in the assay with HT29 colon it was 1.78 µM. For the same compound, the TGI in the assay with PC-3 prostate was found to be 7.58 µM; in the assay with A549 NSCLC, 13.6 µM; in the assay on SF-295 CNS, 5.57 µM; in the assay with BT-549 breast, 16.1 µM; in the assay with IGROV1 ovarian it was 22.4 µM; in the assay on DU-145 prostate, 8.23 µM. Further, the TGI was determined as 23.9 µM in the assay on SNB-75 CNS, 12.8 µM with RPMI-8226 leukemia, 11.4 µM in the assay with LOX IMVI melanoma and 7 µM in the assay with HT29 colon.
